Measured values: ChEMBL document CHEMBL5154681, “Small Amphiphilic Peptides: Activity Against a Broad Range of Drug-Resistant Bacteria and Structural Insight into Membranolytic Properties” (J Med Chem, 2022)
≈ marks a conversion by molar mass, not a printed value. Calls of active or inactive are those of the source. The calls are words filed in the database; no cut-off is given here. Bridge positions count the residues as written; N and C are the ends. Square brackets hold non-standard residues; d marks the D form. Peptide text beside a SMILES is read from it. * marks the point of attachment. Dip = N[C@H](C(=O)O)C(c1ccccc1)c1ccccc1; 2Nal = N[C@@H](Cc1ccc2ccccc2c1)C(=O)O; X1 = CC[C@H](C)CCCCC(=O)*; Dab = NCC[C@H](N)C(=O)O

Key:
Escherichia coli [1] = test: Antibacterial activity against Escherichia coli NDM-1-resistant ATCC BAA-2452 incubated for 24 hrs by microtiter plate method; assay type: functional
Pseudomonas aeruginosa [2] = test: Antibacterial activity against Pseudomonas aeruginosa ATCC 10145 incubated for 24 hrs by microtiter plate method; assay type: functional
Pseudomonas aeruginosa [3] = test: Antibacterial activity against imipenem resistant Pseudomonas aeruginosa ATCC BAA-1744 incubated for 24 hrs by microtiter plate method; assay type: functional
Staphylococcus aureus [4] = test: Bactericidal activity against methicillin resistant Staphylococcus aureus ATCC BAA-1556 assessed as reduction of bacterial growth at 4 times MIC by counting formed colonies; assay type: functional, organism-based; conditions: time <= 4.0 hrs, TDE = time-dependent effect
Klebsiella pneumoniae [5] = test: Antibacterial activity against carbapenem-resistant Klebsiella pneumoniae ATCC BAA-2470 incubated for 24 hrs by microtiter plate method; assay type: functional
Staphylococcus aureus [6] = test: Bactericidal activity against methicillin resistant Staphylococcus aureus ATCC BAA-1556 assessed as time required for complete reduction of bacterial growth at 4 times MIC by counting formed colonies; assay type: functional
Escherichia coli [7] = test: Antibacterial activity against Escherichia coli ATCC 25922 after 24 hrs in presence of fetal bovine serum by microtiter plate method; assay type: functional
Escherichia coli [8] = test: Antibacterial activity against Escherichia coli ATCC 25922 incubated for 24 hrs; assay type: functional
Escherichia coli [9] = test: Antibacterial activity against Escherichia coli ATCC 25922 after 24 hrs in presence of 2 mM CaCl2 at by microtiter plate method; assay type: functional
Pseudomonas aeruginosa [10] = test: Antibacterial activity against Pseudomonas aeruginosa ATCC 27883 incubated for 24 hrs by microtiter plate method; assay type: functional; conditions: Pseudomonas aeruginosa
Escherichia coli [11] = test: Antibacterial activity against Escherichia coli ATCC 25922 after 24 hrs in presence of 4.5 mM of KCl at by microtiter plate method; assay type: functional
Staphylococcus aureus [12] = test: Antibacterial activity against Staphylococcus aureus ATCC 29213 incubated for 24 hrs by microtiter plate method; assay type: functional; conditions: Staphylococcus aureus, ATCC 29213, read-out: MIC
Acinetobacter baumannii = test: Antibacterial activity against ciprofloxacin resistance Acinetobacter baumannii ATCC BAA1605 incubated for 24 hrs by microtiter plate method; assay type: functional
Staphylococcus aureus [13] = test: Bactericidal activity against methicillin resistant Staphylococcus aureus ATCC BAA-1556 assessed as reduction of bacterial growth at MIC by counting formed colonies; assay type: functional, organism-based; conditions: time <= 4.0 hrs, TDE = time-dependent effect
Escherichia coli [14] = test: Antibacterial activity against Escherichia coli ATCC 25922 after 24 hrs in presence of 150 mM NaCl by microtiter plate method; assay type: functional
Escherichia coli [15] = test: Bactericidal activity against Escherichia coli ATCC BAA-2452 assessed as reduction of bacterial growth at 4 times MIC by counting formed colonies; assay type: functional, organism-based; conditions: time <= 4.0 hrs, TDE = time-dependent effect
Escherichia coli [16] = test: Bactericidal activity against Escherichia coli ATCC BAA-2452 assessed as reduction of bacterial growth at MIC by counting formed colonies; assay type: functional, organism-based; conditions: time <= 4.0 hrs, TDE = time-dependent effect
Escherichia coli [17] = test: Antibacterial activity against Escherichia coli ATCC 25922 after 24 hrs in presence of 1 mM of MgCl2 at by microtiter plate method; assay type: functional
Escherichia coli [18] = test: Antibacterial activity against Escherichia coli ATCC 25922 assessed as reduction in microbial growth after 24 hrs in presence of 6 mM of NH4Cl at by microtiter plate method; assay type: functional
Escherichia coli [19] = test: Antibacterial activity against Escherichia coli ATCC 25922 incubated for 24 hrs by microtiter plate method; assay type: functional; conditions: Escherichia coli
Staphylococcus aureus [20] = test: Bactericidal activity against methicillin resistant Staphylococcus aureus ATCC BAA-1556 assessed as time required for complete reduction of bacterial growth at MIC by counting formed colonies; assay type: functional
Klebsiella pneumoniae [21] = test: Antibacterial activity against Klebsiella pneumoniae ATCC 13883 […] incubated for 24 hrs by microtiter plate method; assay type: functional
[22] = Hemolytic activity in human RBC assessed as hemolysis incubated for 2 hrs by spectrophotometer analysis; assay type: toxicity, cell-based, Erythrocyte; conditions: human red blood cells (erythrocytes)
Staphylococcus aureus [23] = test: Antibacterial activity against methicillin resistant Staphylococcus aureus ATCC BAA-1556 incubated for 24 hrs by microtiter plate method; assay type: functional
[24] = Staphylococcus aureus, ATCC BAA-1556, 24 h, read-out: MIC
[25] = ATCC 27883, 24 h, read-out: MIC
[26] = ATCC 25922, 24 h, read-out: MIC

## CC[C@H](C)CCCCC(=O)N[C@@H](CCN)C(=O)N[C@H](C(=O)N[C@@H](CCN)C(=O)N[C@H]1CCNC(=O)[C@H]([C@@H](C)O)NC(=O)[C@H](CCN)NC(=O)[C@H](CCN)NC(=O)[C@H](CC(C)C)NC(=O)[C@@H](Cc2ccccc2)NC(=O)[C@H](CCN)NC1=O)[C@@H](C)O (X1-[Dab]T[Dab][Dab][Dab][dF]L[Dab][Dab]T; lactam 4-C)
Escherichia coli [1]
  MIC: 0.7 µg/mL (≈ 0.582 µM)
Pseudomonas aeruginosa [2]
  MIC: 0.7 µg/mL (≈ 0.582 µM)
Pseudomonas aeruginosa [3]
  MIC: 0.7 µg/mL (≈ 0.582 µM)
Staphylococcus aureus [4]
  Activity: Tde
Klebsiella pneumoniae [5]
  MIC: 1.5 µg/mL (≈ 1.25 µM)
Staphylococcus aureus [6]
  Activity: Active
Escherichia coli [7]
  MIC: 3.1 µg/mL
Escherichia coli [8]
  MBC: 3.1 µg/mL (≈ 2.58 µM)
Escherichia coli [9]
  MIC: 0.7 µg/mL
Pseudomonas aeruginosa [10]; ATCC 27883, read-out: MIC
  MIC: 0.7 µg/mL (≈ 0.582 µM)
Escherichia coli [11]
  MIC: 0.7 µg/mL
Staphylococcus aureus [12]
  MIC: 0.7 µg/mL (≈ 0.582 µM)
Acinetobacter baumannii
  MIC: 0.7 µg/mL (≈ 0.582 µM)
Staphylococcus aureus [13]
  Activity: Tde
Escherichia coli [14]
  MIC: 0.7 µg/mL
Escherichia coli [15]
  Activity: Tde
Escherichia coli [16]
  Activity: Tde
Escherichia coli [17]
  MIC: 1.5 µg/mL
Escherichia coli [18]
  MIC: 0.7 µg/mL
Escherichia coli [19]; ATCC 25922, read-out: MIC
  MIC: 0.7 µg/mL (≈ 0.582 µM)
Staphylococcus aureus [20]
  Activity: Active
Klebsiella pneumoniae [21]
  MIC: 6.2 µg/mL (≈ 5.15 µM)

## NCCCC[C@H](NC(=O)[C@H](CCCCN)NC(=O)[C@@H](N)CCCCN)C(=O)N[C@@H](CCCCN)C(=O)N[C@H](C(=O)N[C@H](C(=O)N[C@H](C(=O)O)C(c1ccccc1)c1ccccc1)C(c1ccccc1)c1ccccc1)C(c1ccccc1)c1ccccc1 (H-KKKK[Dip][Dip][Dip]-OH)
[22]
  HC50 at 2 h: 255 µg/mL
Staphylococcus aureus [23]; [24]
  MIC: 25 µg/mL (≈ 20.8 µM)
Pseudomonas aeruginosa [10]; [25]
  MIC: > 100 µg/mL
Staphylococcus aureus [12]
  MIC: 25 µg/mL (≈ 20.8 µM)
Escherichia coli [19]; [26]
  MIC: > 100 µg/mL

## N=C(N)NCCC[C@H](NC(=O)[C@H](CCCNC(=N)N)NC(=O)[C@@H](N)CCCNC(=N)N)C(=O)N[C@@H](CCCNC(=N)N)C(=O)N[C@H](C(=O)N[C@H](C(=O)O)C(c1ccccc1)c1ccccc1)C(c1ccccc1)c1ccccc1 (H-RRRR[Dip][Dip]-OH)
[22]
  HC50 at 2 h: 185 µg/mL
Staphylococcus aureus [23]; [24]
  MIC: 12.5 µg/mL (≈ 11.5 µM)
Pseudomonas aeruginosa [10]; [25]
  MIC: 50 µg/mL (≈ 45.9 µM)
Staphylococcus aureus [12]
  MIC: 12.5 µg/mL (≈ 11.5 µM)
Escherichia coli [19]; [26]
  MIC: 50 µg/mL (≈ 45.9 µM)

## N=C(N)NCCC[C@H](NC(=O)[C@H](CCCNC(=N)N)NC(=O)[C@H](CCCNC(=N)N)NC(=O)[C@@H](N)CCCNC(=N)N)C(=O)N[C@@H](Cc1ccc2ccccc2c1)C(=O)N[C@@H](Cc1ccc2ccccc2c1)C(=O)N[C@@H](Cc1ccc2ccccc2c1)C(=O)N[C@@H](Cc1ccc2ccccc2c1)C(=O)O (H-RRRR[2Nal][2Nal][2Nal][2Nal]-OH)
[22]
  HC50 at 2 h: 70 µg/mL
Staphylococcus aureus [23]; [24]
  MIC: 12.5 µg/mL (≈ 8.73 µM)
Pseudomonas aeruginosa [10]; [25]
  MIC: > 100 µg/mL
Staphylococcus aureus [12]
  MIC: 12.5 µg/mL (≈ 8.73 µM)
Escherichia coli [19]; [26]
  MIC: 50 µg/mL (≈ 34.9 µM)

## N=C(N)NCCC[C@@H]1NC(=O)[C@H](CCCNC(=N)N)NC(=O)[C@H](C(c2ccccc2)c2ccccc2)NC(=O)[C@H](C(c2ccccc2)c2ccccc2)NC(=O)[C@H](CCCNC(=N)N)NC(=O)[C@H](CCCNC(=N)N)NC(=O)[C@H](C(c2ccccc2)c2ccccc2)NC1=O (stereo in doubt; 16C)
[22]
  HC50 at 2 h: 130 µg/mL
Staphylococcus aureus [23]; 24 h
  MIC: 6.2 µg/mL (≈ 4.79 µM)
Pseudomonas aeruginosa [10]; [25]
  MIC: 50 µg/mL (≈ 38.6 µM)
Staphylococcus aureus [12]
  MIC: 6.2 µg/mL (≈ 4.79 µM)
Escherichia coli [19]; [26]
  MIC: > 100 µg/mL

## N=C(N)NCCC[C@@H]1NC(=O)[C@H](CCCNC(=N)N)NC(=O)[C@H](CCCNC(=N)N)NC(=O)[C@H](Cc2ccc3ccccc3c2)NC(=O)[C@H](Cc2ccc3ccccc3c2)NC(=O)[C@H](Cc2ccc3ccccc3c2)NC(=O)[C@H](CCCNC(=N)N)NC(=O)[C@H](CCCNC(=N)N)NC1=O (cyclo([2Nal][2Nal][2Nal]RRRRR))
[22]
  HC50 at 2 h: 90 µg/mL
Staphylococcus aureus [23]; [24]
  MIC: 6.2 µg/mL (≈ 4.52 µM)
Pseudomonas aeruginosa [10]; [25]
  MIC: 25 µg/mL (≈ 18.2 µM)
Staphylococcus aureus [12]
  MIC: 3.1 µg/mL (≈ 2.26 µM)
Escherichia coli [19]; [26]
  MIC: 50 µg/mL (≈ 36.4 µM)
